Numbers after ± are expanded uncertainties.
What was measured:
[1] = Liquid; for viscosity / mass density: 101 kPa; for viscosity: Capillary tube (Ostwald / Ubbelohde) method; for mass density: Vibrating tube method
[2] = xn = mol fraction of the nth substance listed; settings: 101 kPa, Liquid, x2 = 0; for viscosity: Capillary tube (Ostwald / Ubbelohde) method; for mass density: Vibrating tube method

| SMILES | viscosity ([1]; 283.15 K) [mPa·s] | mass density ([1]; 283.15 K) [kg/m3] | viscosity ([1]; 293.15 K) [mPa·s] | mass density ([1]; 293.15 K) [kg/m3] | viscosity ([1]; 303.15 K) [mPa·s] | mass density ([1]; 303.15 K) [kg/m3] | vapor or sublimation pressure ([1]; 303.15 K) [kPa] | viscosity ([1]; 313.15 K) [mPa·s] | mass density ([1]; 313.15 K) [kg/m3] | viscosity ([2]; 283.15 K) [mPa·s] | mass density ([2]; 283.15 K) [kg/m3] | viscosity ([2]; 293.15 K) [mPa·s] | mass density ([2]; 293.15 K) [kg/m3] | viscosity ([2]; 303.15 K) [mPa·s] | mass density ([2]; 303.15 K) [kg/m3] | viscosity ([2]; 313.15 K) [mPa·s] | mass density ([2]; 313.15 K) [kg/m3] |
| --- | --- | --- | --- | --- | --- | --- | --- | --- | --- | --- | --- | --- | --- | --- | --- | --- | --- |
| CC(=O)CC(C)C [4-methylpentan-2-one] | 0.655 ± 0.006 | 809.8 ± 0.3 | 0.576 ± 0.005 | 800.7 ± 0.3 | 0.511 ± 0.005 | 791.6 ± 0.3 | 3.89 ± 0.11 | 0.46 ± 0.004 | 782.2 ± 0.3 |  |  |  |  |  |  |  |  |
| ClC(Cl)Cl [trichloromethane] | 0.629 ± 0.005 | 1507.3 ± 0.7 | 0.573 ± 0.005 | 1488.4 ± 0.7 | 0.516 ± 0.005 | 1469.4 ± 0.6 | 32.19 ± 0.33 | 0.468 ± 0.004 | 1450 ± 0.6 |  |  |  |  |  |  |  |  |
| CC(=O)CC(C)C [4-methylpentan-2-one] + ClC(Cl)Cl |  |  |  |  |  |  |  |  |  | 0.655 ± 0.006 | 809.8 ± 0.3 | 0.576 ± 0.005 | 800.7 ± 0.3 | 0.511 ± 0.005 | 791.6 ± 0.3 | 0.46 ± 0.004 | 782.2 ± 0.3 |

Source: the NIST ThermoML archive (doi:10.1016/j.jct.2006.07.004)
